Data taken from article PMC10005547, “Development of Highly Efficient Estrogen Receptor β-Targeted Near-Infrared Fluorescence Probes Triggered by Endogenous Hydrogen Peroxide for Diagnostic Imaging of Prostate Cancer” (Molecules, 2023).

Legend:
DU-145 = assay: cells; set-up: CCK-8 cell viability assay, absorbance at 450 nm; details: Homo sapiens, DU-145, 96 h
Protocol: (§1) Normal breast cells MCF-10A and prostate cancer cells DU-145 (purchased from ATCC, Rockville, MD, USA), breast cancer cells MCF-7 (purchased from the Type Culture Collection of the Chinese Academy of Sciences, Shanghai, China) were cultured in a phenol red DMEM [compound left out] medium supplemented with 10% fetal bovine serum. When the cell density reached 80% to 90%, the cells were digested, and the cell suspension was spread into 96-well cell culture plates with a phenol red-free DMEM medium containing 10% CS. After the cells were completely adherent, the original culture medium was discarded, and 100 μL of fresh compound solution prepared with the DMEM medium containing 10% CS were added to each well. The concentration gradient of the compound is: 1 × 10^−7.5 M, 1 × 10^−7 M, 1 × 10^−6.5 M, 1 × 10^−6 M, 1 × 10^−5.5 M, 1 × 10^−5 M, 1 × 10^−4.5 M, 1 × 10^−4 M. After 4 days of drug-treated culture, the culture plate was removed, the culture medium was aspirated, 100 μL CCK-8 working solution was added to each well and incubated for 1.5–2 h at 37 °C in a 5% CO2 incubator. The plate was read on the microplate reader, the wavelength at 450 nm was selected as the reference wavelength, the experimental results were analyzed, and the IC50 was calculated. To investigate the toxicity of P1 and P2 on normal cells and their inhibitory activity on cancer cells before performing cellular imaging, we tested the effects of P1 and P2 on MCF-10A normal breast cells, MCF-7 breast cancer cells with high ERα expression, and DU-145 prostate cancer cells with high ERβ expression by using CCK-8 assays (Table S1). […] However, P1 was not toxic to any of these three cell lines.

MCF-7 = assay: cells; set-up: CCK-8 cell viability assay, absorbance at 450 nm; details: Homo sapiens, MCF7, 96 h
Protocol: as §1

ERβ = target: T1, ERβ (Homo sapiens, UniProt Q92731); assay: fluorescence polarization competition against a fluorescent ligand; type: binding
T1 construct: gene ESR2

in vitro = assay: in vitro; set-up: CCK-8 cell viability assay, absorbance at 450 nm; details: human, mcf-10a cells; read-out: MCF-10A (IC50)
Protocol: Normal breast cells MCF-10A and prostate cancer cells DU-145 (purchased from ATCC, Rockville, MD, USA), breast cancer cells MCF-7 (purchased from the Type Culture Collection of the Chinese Academy of Sciences, Shanghai, China) were cultured in a phenol red DMEM [compound left out] medium supplemented with 10% fetal bovine serum. When the cell density reached 80% to 90%, the cells were digested, and the cell suspension was spread into 96-well cell culture plates with a phenol red-free DMEM medium containing 10% CS. After the cells were completely adherent, the original culture medium was discarded, and 100 μL of fresh compound solution prepared with the DMEM medium containing 10% CS were added to each well. The concentration gradient of the compound is: 1 × 10^−7.5 M, 1 × 10^−7 M, 1 × 10^−6.5 M, 1 × 10^−6 M, 1 × 10^−5.5 M, 1 × 10^−5 M, 1 × 10^−4.5 M, 1 × 10^−4 M. After 4 days of drug-treated culture, the culture plate was removed, the culture medium was aspirated, 100 μL CCK-8 working solution was added to each well and incubated for 1.5–2 h at 37 °C in a 5% CO2 incubator. The plate was read on the microplate reader, the wavelength at 450 nm was selected as the reference wavelength, the experimental results were analyzed, and the IC50 was calculated. […]

ERα = target: T2, ERα (Homo sapiens, UniProt P03372); assay: fluorescence polarization competition against a fluorescent ligand; type: binding
T2 construct: gene ESR1
T2 sequence (P03372 1-595): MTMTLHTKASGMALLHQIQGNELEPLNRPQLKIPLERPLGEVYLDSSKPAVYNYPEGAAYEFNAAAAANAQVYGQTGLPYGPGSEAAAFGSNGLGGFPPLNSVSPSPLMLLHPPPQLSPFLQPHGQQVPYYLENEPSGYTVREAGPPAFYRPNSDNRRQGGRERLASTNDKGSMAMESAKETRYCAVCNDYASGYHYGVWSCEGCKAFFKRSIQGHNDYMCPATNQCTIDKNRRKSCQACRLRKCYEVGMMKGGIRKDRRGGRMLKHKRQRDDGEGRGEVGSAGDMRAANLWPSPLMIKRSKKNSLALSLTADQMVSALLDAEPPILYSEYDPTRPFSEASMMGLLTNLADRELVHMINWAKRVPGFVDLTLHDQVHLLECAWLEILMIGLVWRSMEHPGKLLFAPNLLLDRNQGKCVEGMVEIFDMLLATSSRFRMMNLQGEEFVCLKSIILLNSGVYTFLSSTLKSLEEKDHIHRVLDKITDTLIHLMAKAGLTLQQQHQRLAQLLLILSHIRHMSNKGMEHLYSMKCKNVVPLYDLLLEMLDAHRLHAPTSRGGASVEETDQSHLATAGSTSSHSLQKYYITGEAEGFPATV

T1 sequence (Q92731 whole entry): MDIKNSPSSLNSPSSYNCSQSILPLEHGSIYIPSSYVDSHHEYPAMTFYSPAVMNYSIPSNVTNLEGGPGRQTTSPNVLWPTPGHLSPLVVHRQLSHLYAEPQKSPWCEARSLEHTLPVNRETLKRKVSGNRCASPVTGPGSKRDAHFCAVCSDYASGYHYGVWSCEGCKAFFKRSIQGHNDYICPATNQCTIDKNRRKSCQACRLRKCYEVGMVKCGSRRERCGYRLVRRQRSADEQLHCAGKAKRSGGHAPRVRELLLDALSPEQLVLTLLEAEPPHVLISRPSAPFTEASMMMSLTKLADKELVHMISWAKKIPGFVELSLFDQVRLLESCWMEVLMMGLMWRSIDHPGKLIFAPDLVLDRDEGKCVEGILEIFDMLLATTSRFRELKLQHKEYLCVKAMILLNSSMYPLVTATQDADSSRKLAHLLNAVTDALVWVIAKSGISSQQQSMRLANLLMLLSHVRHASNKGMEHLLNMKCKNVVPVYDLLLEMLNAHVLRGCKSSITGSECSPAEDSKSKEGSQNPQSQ

IC50 (DU-145) [µM]	IC50 (MCF-7) [µM]	Ki (ERβ) [µM]	Ki (ERα) [µM]	SMILES	CC50 at 96 h (in vitro) [µM]
> 100	16.3 ± 4.42	1.21 ± 0.03	8.73 ± 0.01	C=CS(=O)(=O)Oc1ccc2c(c1)C(=C(C#N)C#N)C=C(/C=C/c1ccc(B3OC(C)(C)C(C)(C)O3)cc1)O2 [P2, (E)-4-(Dicyanomethylene)-2-(4-(4,4,5,5-tetramethyl-1,3,2-dioxaborolan-2-yl)styryl)-4H-chromen-6-yl ethenesulfonate]	> 100
> 100	> 100	1.42 ± 0.02	4.36 ± 0.01	CC1(C)OB(c2ccc(/C=C/C3=CC(=C(C#N)C#N)c4cc(O)ccc4O3)cc2)OC1(C)C [P1, (E)-2-(6-Hydroxy-2-(4-(4,4,5,5-tetramethyl-1,3,2-dioxaborolan-2-yl)styryl)-4H-chromen-4-ylidene)malononitrile]	> 100
